According to US11147272B2, “Pyridone compounds and agricultural and horticultural fungicides comprising the same as active ingredients” (MITSUI CHEMICALS AGRO, INC., priority 2017, dated 2021):

Columns and labels:
Puccinia recondita = assay: Test Example E: Brown rust on wheat; assay type: in vivo
Phytophthora infestans = assay: whole plant or invertebrate; assay type: in vivo
[1] = tested on: Blumeria graminis f. sp. hordei; assay: Test Example D: Powdery mildew on barley
Magnaporthe grisea = assay: whole plant or invertebrate; assay type: in vivo
[2] = tested on: Colletotrichum orbiculare; assay: Test Example H: Anthracnose on cucumber; conditions: 6 to 10 days after inoculation
Alternaia brassicicola = assay: Test Example C: Alternaria sooty spot on cabbage; assay type: in vivo
Description: Seeds of a test plant (cabbage variety: Shikidori) were planted and cultivated until the cotyledons extended.
<Control Value> Control value=100{1−(n/3)}

Plasmopara viticola = assay: Test Example G: Downy mildew on vine; conditions: 7 to 10 days after inoculation
Botrytis cinerea = assay: Test Example B: Gray mold on tomato
[3] = Brown rust on wheat, control value class
[4] = Late blight on tomato, control value class
[5] = Powdery mildew on barley, control value class
[6] = Blast on rice, control value class
[7] = Anthracnose on cucumber, 250 ppm spray
[8] = Alternaria sooty spot on cabbage, control value class
[9] = Downy mildew on vine, 250 ppm spray
[10] = Gray mold on tomato, control value class
[11] = 250 ppm drug solution sprayed on test plant
[12] = 250 ppm drug solution sprayed (2.5 ml/pot), cucumber Sagami Hanjiro
[13] = 250 ppm drug solution sprayed (2.5 ml/pot), grape Neomuscat

| SMILES | Test E control value (Puccinia recondita; [3]) | Test F control value (Phytophthora infestans; [4]) | Test D control value [1, 5] | Test A control value (Magnaporthe grisea; [6]) | Test H control value [2, 7] | Test C control value (Alternaia brassicicola; [8]) | Test G control value (Plasmopara viticola; [9]) | Test B control value (Botrytis cinerea; [10]) | Test E control value (Puccinia recondita; [11]) | Test F control value (Phytophthora infestans; [11]) | Test D control value [1, 11] | Test A control value (Magnaporthe grisea; [11]) | Test H control value [2, 12] | Test C control value (Alternaia brassicicola; [11]) | Test G control value (Plasmopara viticola; [13]) | Test B control value (Botrytis cinerea; [11]) |
| --- | --- | --- | --- | --- | --- | --- | --- | --- | --- | --- | --- | --- | --- | --- | --- | --- |
| CCCC1=C(c2ccc(F)cc2Br)N(CC)C(=O)CC1 [compound 359] | L (50% or less control value) | L (50% or less control value) | H (more than 50% control value) | L (50% or less control value) | L (50% or less control value) | L (50% or less control value) | L (50% or less control value) | L (50% or less control value) | – | – | – | – | – | – | – | – |
| CCc1ccc(=O)n(C)c1-c1ccc(F)cc1C [compound 360] | L (50% or less control value) | H (more than 50% control value) | L (50% or less control value) | L (50% or less control value) | L (50% or less control value) | L (50% or less control value) | L (50% or less control value) | L (50% or less control value) | – | – | – | – | – | – | – | – |
| CCCc1ccc(=O)n(CC)c1-c1ccc(F)cc1Br [compound 361] | H (more than 50% control value) | L (50% or less control value) | H (more than 50% control value) | H (more than 50% control value) | L (50% or less control value) | L (50% or less control value) | L (50% or less control value) | H (more than 50% control value) | – | – | – | – | – | – | – | – |
| CCc1cc(Cl)c(=O)n(C)c1-c1ccc(F)cc1C [compound 362] | H (more than 50% control value) | L (50% or less control value) | H (more than 50% control value) | H (more than 50% control value) | L (50% or less control value) | L (50% or less control value) | L (50% or less control value) | H (more than 50% control value) | – | – | – | – | – | – | – | – |
| CCc1cc(Br)c(=O)n(C)c1-c1ccc(F)cc1C [compound 363] | H (more than 50% control value) | L (50% or less control value) | L (50% or less control value) | H (more than 50% control value) | L (50% or less control value) | L (50% or less control value) | H (more than 50% control value) | H (more than 50% control value) | – | – | – | – | – | – | – | – |
| CCn1c(-c2c(F)cc(F)cc2F)c(C=O)cc(Br)c1=O [compound 364] | H (more than 50% control value) | L (50% or less control value) | L (50% or less control value) | L (50% or less control value) | L (50% or less control value) | H (more than 50% control value) | H (more than 50% control value) | H (more than 50% control value) | – | – | – | – | – | – | – | – |
| CCn1c(-c2c(F)cc(F)cc2F)c(C(O)C(C)C)cc(Br)c1=O (stereo not shown) [compound 365] | H (more than 50% control value) | L (50% or less control value) | H (more than 50% control value) | H (more than 50% control value) | H (more than 50% control value) | H (more than 50% control value) | H (more than 50% control value) | H (more than 50% control value) | – | – | – | – | – | – | – | – |
| CCn1c(-c2c(F)cc(F)cc2F)c(C(=O)C(C)C)cc(Br)c1=O [compound 366] | H (more than 50% control value) | L (50% or less control value) | H (more than 50% control value) | H (more than 50% control value) | H (more than 50% control value) | H (more than 50% control value) | H (more than 50% control value) | H (more than 50% control value) | – | – | – | – | – | – | – | – |
| CCc1ccc(=O)n(C)c1-c1ccc(OC)cc1C [compound 367] | L (50% or less control value) | L (50% or less control value) | H (more than 50% control value) | L (50% or less control value) | H (more than 50% control value) | L (50% or less control value) | L (50% or less control value) | L (50% or less control value) | – | – | – | – | – | – | – | – |
| CCCc1cc(Cl)c(=O)n(CC)c1-c1ccc(F)cc1Br [compound 368] | H (more than 50% control value) | H (more than 50% control value) | H (more than 50% control value) | H (more than 50% control value) | H (more than 50% control value) | H (more than 50% control value) | H (more than 50% control value) | H (more than 50% control value) | – | – | – | – | – | – | – | – |
| CCCc1cc(Br)c(=O)n(CC)c1-c1ccc(F)cc1Br [compound 369] | H (more than 50% control value) | H (more than 50% control value) | H (more than 50% control value) | H (more than 50% control value) | H (more than 50% control value) | H (more than 50% control value) | H (more than 50% control value) | H (more than 50% control value) | – | – | – | – | – | – | – | – |
| CCCc1ccc(=O)n(CC)c1-c1ccc(OC)cc1Br [compound 370] | H (more than 50% control value) | H (more than 50% control value) | H (more than 50% control value) | L (50% or less control value) | H (more than 50% control value) | H (more than 50% control value) | H (more than 50% control value) | H (more than 50% control value) | – | – | – | – | – | – | – | – |
| CCCC1=C(c2c(F)cc(F)cc2F)N(CC)C(=O)CC1 [compound 371] | L (50% or less control value) | L (50% or less control value) | L (50% or less control value) | L (50% or less control value) | L (50% or less control value) | L (50% or less control value) | L (50% or less control value) | H (more than 50% control value) | – | – | – | – | – | – | – | – |
| CCCc1ccc(=O)n(CC)c1-c1c(F)cc(F)cc1F [compound 372] | H (more than 50% control value) | L (50% or less control value) | H (more than 50% control value) | L (50% or less control value) | H (more than 50% control value) | H (more than 50% control value) | H (more than 50% control value) | H (more than 50% control value) | – | – | – | – | – | – | – | – |
| CCC1=C(c2c(F)cc(F)cc2F)N(CC)C(=O)CC1 [compound 373] | – | – | – | – | – | – | – | – | L (50% or less control value) | L (50% or less control value) | L (50% or less control value) | L (50% or less control value) | H (more than 50% control value) | H (more than 50% control value) | L (50% or less control value) | L (50% or less control value) |
| CCc1cc(Cl)c(=O)n(C)c1-c1ccc(OC)cc1C [compound 374] | – | – | – | – | – | – | – | – | H (more than 50% control value) | L (50% or less control value) | H (more than 50% control value) | L (50% or less control value) | L (50% or less control value) | H (more than 50% control value) | L (50% or less control value) | H (more than 50% control value) |
| CCc1cc(Br)c(=O)n(C)c1-c1ccc(OC)cc1C [compound 375] | – | – | – | – | – | – | – | – | H (more than 50% control value) | H (more than 50% control value) | H (more than 50% control value) | L (50% or less control value) | L (50% or less control value) | H (more than 50% control value) | H (more than 50% control value) | H (more than 50% control value) |
